Entries after “also recorded” stand apart in the source; their conditions may differ.
Columns and labels:
[1] = system: stage IV melanoma patients; assay: Clinical course of vaccinated melanoma patients; type: in vivo, human; design: key to Clinical response: PD = Progressive disease; SD = Stable disease; PR = Partial response; CR = Complete response
Description: (§1) A comparison of the patients studied in Example 4 was carried out. In brief, seven patients were identified as clinical responders following a cancer diagnosis and vaccination with an hTERT vaccine. These patients were identified based on a combination of prolonged survival and clinical response. The clinical response could either be stable disease (SD), partial response (PR) or complete response (CR). The vaccinated melanoma patients were diagnosed with stage IV at the time of inclusion in the clinical trial, but had no brain metastases. Lung cancer patient P5 was diagnosed with stage IV, inoperable lung cancer and colon cancer patient P1 with late stage inoperable colon cancer. Lung cancer patient P6 was a stage IV lung cancer patient with a 12-week life expectancy. Pancreas cancer patient P1 had relapsed, inoperable pancreas cancer and a life expectancy of 8-10 months. Four of the patients (designated Melanoma P7-P8, Lung cancer P5 and Colon cancer P1) had each been vaccinated with the peptide GV1001 (SEQ ID NO. 10). The fifth patient (designated Lung cancer P6) and the sixth patient (designated Pancreas cancer 1) had been vaccinated with dendritic cells transfected with mRNA encoding hTERT. The seventh patient, Melanoma patient P9, had not been vaccinated at the time of the study and instead developed a spontaneous response following development of the cancer. (An eighth and final patient was also identified as a clinical responder but samples from this patient were not available for study.)
Six patients who were clinical non-responders following a melanoma cancer diagnosis and a GV1001 peptide (SEQ ID NO. 10) vaccination were studied. These patients were all stage IV melanoma patients and included in the same GV1001 vaccination trial as melanoma patients P7 and P8 who were long term survivors (see Example 6). […] Five of the patients also experienced progressive disease and one patient, designated Melanoma P3, experienced some stabilization of the disease but still had short survival. The proliferative T-cell responses of each patient to a series of peptides were determined in the same manner as in Example 1, at one time point. The peak response of each patient during the study period to peptide GV1001 is also shown which confirms that each patient responded immunologically to GV1001 vaccination.
(§2) The patients were classed as either clinical responders or clinical non-responders based on their clinical response which included stable disease (SD), tumour regression (PR or CR) and unexpectedly long survival time. Both clinical responders and clinical non-responders were selected from the same or similar vaccination trials.

[2] = system: late stage inoperable colon cancer patient; assay: Clinical course of vaccinated colon cancer patient; type: in vivo, human; conditions: patient Colon ca P1
Description: as §1, §2

Question: With “EARPALLTSRLRFIPK (listed as Homo sapiens) [GV1001]” as the sequence, how does the “Clinical Responder” value ([1]; patient Melanoma P1) read?
Answer: No

Question: What about the Clinical response ([1]; patient Melanoma P1) of the same sequence?
Answer: PD

Question: What about the “Survival (Months)” value ([1]; patient Melanoma P1) of the same sequence?
Answer: 10 Months

Question: What about the “Vaccine-specific T cell response at time-point tested” value (“Vaccine-specific T cell response” below) ([1]; patient Melanoma P1) of the same sequence?
Answer: Yes

Question: What about the “Clinical Responder” value ([1]; patient Melanoma P2) of the same sequence?
Answer: No

Question: And the Clinical response ([1]; patient Melanoma P2)?
Answer: PD

Question: What about the “Survival (Months)” value ([1]; patient Melanoma P2) of the same sequence?
Answer: 9 Months

Question: And the “Vaccine-specific T cell response” value ([1]; patient Melanoma P2)?
Answer: Yes

Question: And the “Clinical Responder” value ([1]; patient Melanoma P3)?
Answer: No

Question: What about the Clinical response ([1]; patient Melanoma P3) of the same sequence?
Answer: SD

Question: And the “Survival (Months)” value ([1]; patient Melanoma P3)?
Answer: 10 Months

Question: What about the “Vaccine-specific T cell response” value ([1]; patient Melanoma P3) of the same sequence?
Answer: Yes

Question: What about the “Clinical Responder” value ([1]; patient Melanoma P4) of the same sequence?
Answer: No

Question: What about the Clinical response ([1]; patient Melanoma P4) of the same sequence?
Answer: PD

Question: And the “Survival (Months)” value ([1]; patient Melanoma P4)?
Answer: 8 Months

Question: And the “Vaccine-specific T cell response” value ([1]; patient Melanoma P4)?
Answer: Yes

Question: And the “Clinical Responder” value ([1]; patient Melanoma P5)?
Answer: No

Question: What about the Clinical response ([1]; patient Melanoma P5) of the same sequence?
Answer: PD

Question: And the “Survival (Months)” value ([1]; patient Melanoma P5)?
Answer: 12 Months

Question: And the “Vaccine-specific T cell response” value ([1]; patient Melanoma P5)?
Answer: Yes

Question: And the “Clinical Responder” value ([1]; patient Melanoma P6)?
Answer: No

Question: And the Clinical response ([1]; patient Melanoma P6)?
Answer: PD

Question: And the “Survival (Months)” value ([1]; patient Melanoma P6)?
Answer: 8 Months

Question: And the “Vaccine-specific T cell response” value ([1]; patient Melanoma P6)?
Answer: Yes

Question: And the “Clinical Responder” value ([1]; patient Melanoma P7)?
Answer: Yes

Question: And the Clinical response ([1]; patient Melanoma P7)?
Answer: alive, PR

Question: What about the “Vaccine-specific T cell response” value ([1]; patient Melanoma P7) of the same sequence?
Answer: Yes

Question: What about the “Survival (Months)” value ([1]; patient Melanoma P7, + signifies that the patient is still alive) of the same sequence?
Answer: 65+ Months

Question: And the “Clinical Responder” value ([1]; patient Melanoma P8)?
Answer: Yes

Question: What about the “Survival (Months)” value ([1]; patient Melanoma P8) of the same sequence?
Answer: 21 Months

Question: And the “Vaccine-specific T cell response” value ([1]; patient Melanoma P8)?
Answer: Yes

Question: What about the Clinical response ([1]; patient Melanoma P8, TTP = time to progression) of the same sequence?
Answer: increased; also recorded: TTP, PR

Question: And the “Clinical Responder” value [2]?
Answer: Yes

Question: What about the Clinical response [2] of the same sequence?
Answer: alive, CR

Question: And the “Vaccine-specific T cell response” value [2]?
Answer: Yes

Question: And the “Survival (Months)” value ([2]; + signifies that the patient is still alive)?
Answer: 80+ Months
